System: Human recombinant GST-PI3K
Assay: PI3K induced-lipid phosphorylation scintillation proximity assay (neomycin-coated SPA beads)
Format: biochemical
Settings: amount necessary to achieve 50% inhibition of PI3K; 120 min at room temperature
Source text: The efficacy of compounds of the invention in inhibiting the PI3K induced-lipid phosphorylation may be tested in the following binding assay. The assay combines the scintillation proximity assay technology (SPA, Amersham) with the capacity of neomycin (a polycationic antibiotic) to bind phospholipids with high affinity and specificity. The Scintillation Proximity Assay is based on the properties of weakly emitting isotopes (such as ^3H, ^125I, ^33P). Coating SPA beads with neomycin allows the detection of phosphorylated lipid substrates after incubation with recombinant PI3K and radioactive ATP in the same well, by capturing the radioactive phospholipids to the SPA beads through their specific binding to neomycin. To a 96 wells MTP containing 10 μl of the test compound of Formula (I) (solubilized in 10% DMSO; to yield a concentration of 100, 25, 5.0, 1.25, 0.312, 0.078, 0.0195, 0.00488, 0.00122 and 0.0003 μM of the test compound), the following assay components are added: 1) 10 μL of lipid micelles 2) […] of Kinase buffer ([^33P]γATP162 μM/300 nCi, MgCl2 2.5 mM, DTT 2.5 mM, Na3VO4 25 μM in Hepes 40 mM, pH 7.4) and 3) 10 μL (100 ng) of Human recombinant GST-PI3K (in Hepes 40 mM, pH 7.4, ethylenglycol 4%). After incubation at room temperature for 120 minutes, with gentle agitation, the reaction is stopped by addition of 200 μL of a solution containing 250 μg of neomycin-coated PVT SPA beads, ATP 60 mM and EDTA 6.2 mM in PBS. The assay is further incubated at room temperature for 60 minutes with gentle agitation to allow binding of phospholipids to neomycin-SPA beads. After precipitation of the neomycin-coated PVT SPA beads for 5 minutes at 1500×g, radioactive PtdIns(3)P is quantified by scintillation counting in a Wallac MicroBeta™ plate counter. The values indicated in Table I below refer to the IC50 (μM) with respect to PI3K, i.e. the amount necessary to achieve 50% inhibition of said target. Said values show a considerable inhibitory potency of pyridopyrimidine compounds with regard to PI3K.

Compound | IC50 [nM]
COCc1cccc(-c2nc(N3CCOCC3)nc3c(N(C)CCO)cc(C(=O)O)nc23)c1 [Example 27, 8-[(2-Hydroxy-ethyl)-methyl-amino]-4-(3-methoxymethyl-phenyl)-2-morpholin-4-yl-pyrido[3,2-d]pyrimidine-6-carboxylic acid] | 1850
COCc1cccc(-c2nc(N3CCOCC3)nc3c(NCCO)cc(C(=O)O)nc23)c1 [Example 28, 8-(2-Hydroxy-ethylamino)-4-(3-methoxymethyl-phenyl)-2-morpholin-4-yl-pyrido[3,2-d]pyrimidine-6-carboxylic acid] | 2490
CN(C)c1cc(C(=O)O)nc2c(-c3cc(F)ccc3O)nc(N3CCOCC3)nc12 [Example 29, 8-(Dimethylamino)-4-(5-fluoro-2-hydroxyphenyl)-2-morpholin-4-ylpyrido[3,2-d]pyrimidine-6-carboxylic acid] | 66
CNc1cc(C(=O)O)nc2c(-c3cc(F)ccc3O)nc(N3CCOCC3)nc12 [Example 30, 4-(5-Fluoro-2-hydroxyphenyl)-8-(methylamino)-2-morpholin-4-ylpyrido[3,2-d]pyrimidine-6-carboxylic acid] | 304
COCCNc1cc(C(=O)O)nc2c(-c3cc(F)ccc3O)nc(N3CCOCC3)nc12 [Example 31, 4-(5-Fluoro-2-hydroxyphenyl)-8-[(2-methoxyethyl)amino]-2-morpholin-4-ylpyrido[3,2-d]pyrimidine-6-carboxylic acid] | 73
CN(C)CCN(C)c1cc(C(=O)O)nc2c(-c3cc(F)ccc3O)nc(N3CCOCC3)nc12 [Example 32, 8-[[2-(Dimethylamino)ethyl](methyl)amino]-4-(5-fluoro-2-hydroxyphenyl)-2-morpholin-4-ylpyrido[3,2-d]pyrimidine-6-carboxylic acid] | 564
COCCN(C)c1cc(C(=O)O)nc2c(-c3cccc(F)c3O)nc(N3CCOCC3)nc12 [Example 33, 4-(3-Fluoro-2-hydroxyphenyl)-8-[(2-methoxyethyl)(methyl)amino]-2-morpholin-4-ylpyrido[3,2-d]pyrimidine-6-carboxylic acid] | 9
CNc1cc(C(=O)O)nc2c(-c3cccc(F)c3O)nc(N3CCOCC3)nc12 [Example 35, 4-(3-Fluoro-2-hydroxyphenyl)-8-(methylamino)-2-morpholin-4-ylpyrido[3,2-d]pyrimidine-6-carboxylic acid] | 48
COCCNc1cc(C(=O)O)nc2c(-c3cccc(F)c3O)nc(N3CCOCC3)nc12 [Example 36, 4-(3-Fluoro-2-hydroxyphenyl)-8-[(2-methoxyethyl)amino]-2-morpholin-4-ylpyrido[3,2-d]pyrimidine-6-carboxylic acid] | 18
CN(CCO)c1cc(C(=O)O)nc2c(-c3cccc(F)c3O)nc(N3CCOCC3)nc12 [Example 37, 4-(3-Fluoro-2-hydroxyphenyl)-8-[(2-hydroxyethyl)(methyl)amino]-2-morpholin-4-ylpyrido[3,2-d]pyrimidine-6-carboxylic acid] | 10
O=C(O)c1cc(NCCO)c2nc(N3CCOCC3)nc(-c3cccc(F)c3O)c2n1 [Example 38, 4-(3-Fluoro-2-hydroxyphenyl)-8-[(2-hydroxyethyl)amino]-2-morpholin-4-ylpyrido[3,2-d]pyrimidine-6-carboxylic acid] | 43
CS(=O)(=O)c1cc(C(=O)O)nc2c(-c3cccc(F)c3O)nc(N3CCOCC3)nc12 [Example 39] | 26
CNc1cc(C(=O)O)nc2c(-c3cccc(O)c3)nc(N3CCOCC3)nc12 [Example 40, 4-(3-Hydroxyphenyl)-8-(methylamino)-2-morpholin-4-ylpyrido[3,2-d]pyrimidine-6-carboxylic acid] | 144
O=C(O)c1ccc2nc(N3CCOCC3)nc(-c3cccc(O)c3)c2n1 [Example 41, 4-(3-Hydroxyphenyl)-2-morpholin-4-ylpyrido[3,2-d]pyrimidine-6-carboxylic acid] | 63
CN(C)c1cc(C(=O)O)nc2c(-c3ccccc3O)nc(N3CCOCC3)nc12 [Example 42, 8-(Dimethylamino)-4-(2-hydroxyphenyl)-2-morpholin-4-ylpyrido[3,2-d]pyrimidine-6-carboxylic acid] | 23
CN(C)CCN(C)c1cc(C(=O)O)nc2c(-c3ccccc3O)nc(N3CCOCC3)nc12 [Example 43, 8-[[2-(Dimethylamino)ethyl](methyl)amino]-4-(2-hydroxyphenyl)-2-morpholin-4-ylpyrido[3,2-d]pyrimidine-6-carboxylic acid] | 459
O=C(O)c1cc(NCCO)c2nc(N3CCOCC3)nc(-c3ccccc3O)c2n1 [Example 44, 8-[(2-Hydroxyethyl)amino]-4-(2-hydroxyphenyl)-2-morpholin-4-ylpyrido[3,2-d]pyrimidine-6-carboxylic acid] | 82
CS(=O)(=O)c1cc(C(=O)O)nc2c(-c3ccc(O)c(F)c3)nc(N3CCOCC3)nc12 [Example 45, 4-(3-Fluoro-4-hydroxyphenyl)-8-(methylsulfonyl)-2-morpholin-4-ylpyrido[3,2-d]pyrimidine-6-carboxylic acid] | 335
COCCNc1cc(C(=O)O)nc2c(-c3ccc(CO)cc3)nc(N3CCOCC3)nc12 [Example 46, 4-[4-(Hydroxymethyl)phenyl]-8-[(2-methoxyethyl)amino]-2-morpholin-4-ylpyrido[3,2-d]pyrimidine-6-carboxylic acid] | 346
COCCN(C)c1cc(C(=O)O)nc2c(-c3cccc(CO)c3)nc(N3CCOCC3)nc12 [Example 47, 4-[3-(Hydroxymethyl)phenyl]-8-[(2-methoxyethyl)(methyl)amino]-2-morpholin-4-ylpyrido[3,2-d]pyrimidine-6-carboxylic acid] | 8
O=C(O)c1cc(NCCO)c2nc(N3CCOCC3)nc(-c3cccc(CO)c3)c2n1 [Example 48, 8-[(2-Hydroxyethyl)amino]-4-[3-(hydroxymethyl)phenyl]-2-morpholin-4-ylpyrido[3,2-d]pyrimidine-6-carboxylic acid] | 27
CN(C)c1cc(C(=O)O)nc2c(-c3ccc(F)c(CO)c3)nc(N3CCOCC3)nc12 [Example 49, 8-(Dimethylamino)-4-[4-fluoro-3-(hydroxymethyl)phenyl]-2-morpholin-4-ylpyrido[3,2-d]pyrimidine-6-carboxylic acid] | 329
CN(CCO)c1cc(C(=O)O)nc2c(-c3ccc(F)c(CO)c3)nc(N3CCOCC3)nc12 [Example 50, 4-[4-Fluoro-3-(hydroxymethyl)phenyl]-8-[(2-hydroxyethyl)(methyl)amino]-2-morpholin-4-ylpyrido[3,2-d]pyrimidine-6-carboxylic acid] | 303
COCCN(C)c1cc(C(=O)O)nc2c(-c3ccc(F)cc3O)nc(N3CCOCC3)nc12 [Example 51, 4-(4-Fluoro-2-hydroxyphenyl)-8-[(2-methoxyethyl)(methyl)amino]-2-morpholin-4-ylpyrido[3,2-d]pyrimidine-6-carboxylic acid] | 62
CN(C)c1cc(C(=O)O)nc2c(-c3ccc(F)cc3O)nc(N3CCOCC3)nc12 [Example 52, 8-(Dimethylamino)-4-(4-fluoro-2-hydroxyphenyl)-2-morpholin-4-ylpyrido[3,2-d]pyrimidine-6-carboxylic acid] | 83
CNc1cc(C(=O)O)nc2c(-c3ccc(F)cc3O)nc(N3CCOCC3)nc12 [Example 53, 4-(4-Fluoro-2-hydroxyphenyl)-8-(methylamino)-2-morpholin-4-ylpyrido[3,2-d]pyrimidine-6-carboxylic acid] | 412
COCCNc1cc(C(=O)O)nc2c(-c3ccc(F)cc3O)nc(N3CCOCC3)nc12 [Example 54, 4-(4-Fluoro-2-hydroxyphenyl)-8-[(2-methoxyethyl)amino]-2-morpholin-4-ylpyrido[3,2-d]pyrimidine-6-carboxylic acid] | 89
CS(=O)(=O)c1cc(C(=O)O)nc2c(-c3cc(F)ccc3O)nc(N3CCOCC3)nc12 [Example 55, 4-(5-Fluoro-2-hydroxyphenyl)-8-(methylsulfonyl)-2-morpholin-4-ylpyrido[3,2-d]pyrimidine-6-carboxylic acid] | 139
CS(=O)(=O)c1cc(C(=O)O)nc2c(-c3cc(O)cc(F)c3)nc(N3CCOCC3)nc12 [Example 56, 4-(3-Fluoro-5-hydroxyphenyl)-8-(methylsulfonyl)-2-morpholin-4-ylpyrido[3,2-d]pyrimidine-6-carboxylic acid] | 15
CN(C)CCN(C)c1cc(C(=O)O)nc2c(-c3cccc4[nH]ccc34)nc(N3CCOCC3)nc12 [Example 57, 8-[[2-(Dimethylamino)ethyl](methyl)amino]-4-(1H-indol-4-yl)-2-morpholin-4-ylpyrido[3,2-d]pyrimidine-6-carboxylic acid] | 137

Source: US8609666B2, “2-morpholino-pyrido[3,2-D]pyrimidines” (Merck Serono SA, priority 2009, dated 2013)
